Assay results taken from PubChem BioAssay (NCI).
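Step 1: Grow cells in 96-well plates. Step 2: Expose to compound for 48 hours at 5 concentrations. Step 3: Interpolate endpoints linearly; if unreached, use highest concentration. At the TGI there is no net growth.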

Legend:
Assay in all cases: NCI-60 cell line screen, 48 h
OVCAR-4 ovarian = system: OVCAR-4 ovarian
M14 melanoma = system: M14 melanoma
HCT-15 colon = system: HCT-15 colon
PC-3 prostate = system: PC-3 prostate
KM12 colon = system: KM12 colon
MOLT-4 leukemia = system: MOLT-4 leukemia
NCI-H460 lung = system: NCI-H460 lung
NCI-H226 lung = system: NCI-H226 lung
MDA-MB-231 breast = system: MDA-MB-231 breast
UACC-62 melanoma = system: UACC-62 melanoma

Compound	TGI (OVCAR-4 ovarian) [µM]	TGI (M14 melanoma) [µM]	TGI (HCT-15 colon) [µM]	TGI (PC-3 prostate) [µM]	TGI (KM12 colon) [µM]	TGI (MOLT-4 leukemia) [µM]	TGI (NCI-H460 lung) [µM]	TGI (NCI-H226 lung) [µM]	TGI (MDA-MB-231 breast) [µM]	TGI (UACC-62 melanoma) [µM]
CCCCC(=O)Nc1ccc2cc(C(=O)OC)c(=O)[nH]c2n1	> 100	> 100	> 100	> 100	> 100	> 100	> 100	> 100	> 100	–
Brc1ccc2c(c1)[C@H]1CCc3c([nH]c4ccccc34)[C@H]1N2	26.3	29.9	–	22.4	18.6	16.8	24.8	28.4	12.3	24
O=c1[nH]nc(Nc2ccccc2)c2nnn(Cc3ccccc3)c12	> 100	> 100	> 100	> 100	> 100	> 100	> 100	> 100	> 100	> 100
Clc1ccc2nc3c(c(-c4ccccc4)nn3-c3ccccc3)c(-c3ccccc3)c2c1	> 100	> 100	> 100	> 100	> 100	> 100	> 100	> 100	> 100	> 100
CCOC(=O)C(NC(=O)Nc1ccccc1)(Nc1cccc(Cl)c1)C(F)(F)F (configuration not stated)	–	> 100	> 100	> 100	> 100	> 100	> 100	> 100	> 100	> 100
CC12CCC3=C(CSC4=C3CSc3ccccc34)C1=CCCC2=O (configuration not stated)	55.6	> 100	> 100	–	> 100	> 100	> 100	> 100	–	–
Cc1cc2nc(N)n[n+]([O-])c2cc1C	–	> 100	> 100	> 100	> 100	> 100	–	> 100	> 100	> 100
c1ccc2c3c(c(N4CCNCC4)nc2c1)CCCC3	31.5	19	29.3	25.7	33.7	> 100	29.4	29.6	27.4	30.4
Oc1cccc(-c2cc(=S)ss2)c1	40.6	37.7	31.4	28.3	43	> 100	32.8	41	31.5	38.2
O=C1N2CCN=C2c2ccccc2C1(O)c1ccccc1 (configuration not stated)	> 100	> 100	> 100	> 100	> 100	> 100	> 100	> 100	> 100	> 100
COc1c2c(cc3oc(=O)ccc13)OC(C)(C)C=C2	–	48.4	65.5	–	48.5	59.1	62.2	> 125	76.2	42.2
O=C(CSCC(=O)N/N=C/c1ccc(F)cc1)N/N=C/c1ccc(F)cc1	> 100	> 100	> 100	> 100	> 100	76.9	> 100	> 100	> 100	> 100
CCOC(=O)Cn1c(=O)c2cc(C)cc3c(Cl)nc4c(OC)c(OC)cc1c4c32	> 100	> 100	> 100	> 100	> 100	> 100	> 100	> 100	> 100	> 100
COc1cc(C(C)(C)C)c(OC(=O)/C=C/C(=O)O/C=C/[N+](=O)[O-])c(C(C)(C)C)c1	–	65.6	48.4	–	38.5	> 100	> 100	> 100	82.1	> 100
c1ccc2c(c1)N=c1ccccc1=P21c2ccccc2Nc2ccccc21	19.9	5.67	> 71.4	10.1	2.13	1.67	10.7	3.65	–	> 100
COc1cc(CNc2nc3cc(C(F)(F)F)ccc3nc2C(=O)O)cc(OC)c1OC	–	35.7	> 100	57.9	78.2	58.1	82	> 100	–	28.9
COC(=O)[C@@]12CC3CN(Cc4c1[nH]c1ccccc41)C2CC3=O	> 100	> 100	> 100	> 100	> 100	> 100	> 100	> 100	> 100	> 100
O=C(NC12CC3CC(CC(C3)C1)C2)n1cnc2cncnc21	–	> 100	> 100	98.7	> 100	> 100	> 100	–	> 100	> 100
CC1CN=C(c2ccc3c(c2)Cc2cc(C4=NCC(C)N4)ccc2-3)N1 (configuration not stated)	48.6	> 100	> 100	> 100	56	> 100	86.8	> 100	> 100	99
O=C(NCCc1ccc(F)cc1)c1cc(/C=C/c2cc(O)ccc2O)ccc1O	12	12.5	6.32	10.9	38	6.99	40	29.5	10.5	4.85
C/C(=C/CC[C@](C)(OC1OC(CO)C(O)C(O)C1OC1OC(C)C(O)C(O)C1O)[C@H]1CC[C@]2(C)[C@@H]1CC[C@@H]1[C@@]3(C)CC[C@H](O)C(C)(C)[C@@H]3C[C@H](O)[C@]12C)CO (some centres not stated)	> 100	> 100	–	> 100	> 100	> 100	> 100	> 100	> 100	> 100
CC(C)=CCC[C@@H](C)c1c(O)c(O)c(C)c2nc3ccccc3nc12	19.9	12.9	15	11.3	13.2	> 27.9	32.4	5.97	15	6.72
